# In patent publication US20230346827A1 (priority 2020, published 2023):
# Tested on: rats subjected to sTBI
# Assay: sTBI rats, LMW-DS 1, 5, 15 mg/kg s.c. 30 min post-TBI: HPLC of brain energy metabolites, antioxidants, oxidative/nitrosative stress biomarkers (Example 4)
# Format: in vivo, rat
# Experimental: Male Wistar rats (n=160) of 300-350 g body weight were used in this study. They were fed with standard laboratory diet and water ad libitum in a controlled environment.
# As the accepted anesthetic mixture, animals received 35 mg/kg b.w. ketamine and 0.25 mg/kg body weight midazolam by intramuscular injection. Diffuse sTBI was induced according to the “weight drop” impact acceleration model set up by Marmarou et al. J. Neurosurg. 1994, 80: 291-300. This model causes diffuse axonal injury and it is able to reproduce the physical and mechanical characteristics of the diffuse TBI in humans.
# Severe TBI was induced by dropping a 450 g weight from 2 meters height onto the rat head protected by a helmet (metal disk previously fixed on the skull using dental cement) in order to uniformly distribute the mechanical force to the brain. Rats were placed prone on a bed of specific polyurethane foam inserted in a special container; this foam dissipates the major part of the potential energy (deriving from the mechanical forces) and prevents any rebound of the animal after the impact that could produce spinal damages.
# After 2 or 7 days from TBI induction, rats were anesthetized again and then immediately sacrificed. These time points are coincident with the worst biochemical derangement (2 days) or, in the case of a mildly injured brain, with a full metabolic recovery (7 days).
# The drug treatment consisted in a subcutaneous injection of 0.5 ml of LMW-DS (ILB®, Tikomed, Viken, Sweden, WO 2016/076780) and administered at 3 different concentrations (1, 5 and 15 mg/kg body weight), according to the schematic protocol described below. Sham-operated animals underwent the same procedure of anesthesia but TBI and were used as the control group.
# Rats subjected to sTBI and receiving a single administration of LMW-DS after 30 minutes post-TBI, with sacrifice at 2 days post-TBI. Animals were divided in the following subgroups: • 1. 12 animals subjected to sTBI and treated with 1 mg/kg b.w. LMW-DS • 2. 12 animals subjected to sTBI and treated with 5 mg/kg b.w. LMW-DS • 3. 12 animals subjected to sTBI and treated with 15 mg/kg b.w. LMW-DS
# Rats subjected to sTBI and receiving a single administration of LMW-DS after 30 minutes post-TBI, with sacrifice at 7 days post-TBI. Animals were divided in the following subgroups: • 1. 12 animals subjected to sTBI and treated with 1 mg/kg b.w. LMW-DS • 2. 12 animals subjected to sTBI and treated with 5 mg/kg b.w. LMW-DS • 3. 12 animals subjected to sTBI and treated with 15 mg/kg b.w. LMW-DS
# Rats (n = 12) subjected to sTBI and receiving repeated administrations of the maximal dose of LMW-DS (15 mg/kg b.w.) after 30 minutes, 3 days and 5 days post-TBI, with sacrifice at 7 days post-TBI. Four additional rats were used for the histo-morphological studies. Total rats in this group: n=16
# To minimize metabolite loss, an in vivo craniectomy was performed in all animals during anesthesia. The rat skull was carefully removed, the brain was exposed, sharply cut along the sagittal fissure and the two hemispheres were separated. The hemispheres dedicated to biochemical analyses were freeze-clamped by aluminum tongues pre-cooled in liquid nitrogen and then immersed in liquid nitrogen. The freeze-clamping procedure was introduced to accelerate freezing of the tissue, thus minimizing potential metabolite loss.
# Tissue homogenization for metabolite analyses was effected as described below. After the wet weight (w.w.) determination, the frozen hemispheres were placed into 7 ml of ice-cold, nitrogen-saturated, precipitating solution (1:10 w/v) composed by CH3CN + 10 mM KH2PO4, pH 7.40, (3:1; v:v), and the homogenization was performed using an Ultra-Turrax homogenizer set at 24,000 rpm/min (Janke & Kunkel, Staufen, Germany). […]
# [1] = 15 mg/kg, 7 d post-sTBI, adimensional ratio
substance,measurement,setting,value
sodium salt of dextran sulfate [LMW-DS],GDP,"15 mg/kg, 2 d post-sTBI",194.61 ± 26.88 nmol/g w.w.
same,GDP Glucose,"15 mg/kg, 2 d post-sTBI",84.24 ± 37.54 nmol/g w.w.
same,GMP,"15 mg/kg, 2 d post-sTBI",178.88 ± 22.46 nmol/g w.w.
same,GSH,"15 mg/kg, 2 d post-sTBI",2418.94 ± 352.75 nmol/g w.w.
same,GTP,"15 mg/kg, 2 d post-sTBI",179.07 ± 18.89 nmol/g w.w.
same,GUANINE,"15 mg/kg, 2 d post-sTBI",1.61 ± 0.40 nmol/g w.w.
same,GUANOSINE,"15 mg/kg, 2 d post-sTBI",24.35 ± 4.05 nmol/g w.w.
same,HYPOXANTHINE,"15 mg/kg, 2 d post-sTBI",6.82 ± 1.12 nmol/g w.w.
same,IMP,"15 mg/kg, 2 d post-sTBI",68.95 ± 12.98 nmol/g w.w.
same,INOSINE,"15 mg/kg, 2 d post-sTBI",142.91 ± 18.63 nmol/g w.w.
same,MDA,"15 mg/kg, 2 d post-sTBI",18.28 ± 2.98 nmol/g w.w.
same,Malonyl-CoA,"15 mg/kg, 2 d post-sTBI",28.73 ± 6.09 nmol/g w.w.
same,NADH,"15 mg/kg, 2 d post-sTBI",10.83 ± 1.58 nmol/g w.w.
same,NADPH,"15 mg/kg, 2 d post-sTBI",8.93 ± 0.74 nmol/g w.w.
same,NADP^+,"15 mg/kg, 2 d post-sTBI",17.75 ± 4.06 nmol/g w.w.
same,NAD^+,"15 mg/kg, 2 d post-sTBI",475.32 ± 80.91 nmol/g w.w.
same,NO2,"15 mg/kg, 2 d post-sTBI",72.29 ± 8.71 nmol/g w.w.
same,NO3,"15 mg/kg, 2 d post-sTBI",56.50 ± 12.30 nmol/g w.w.
same,UDP,"15 mg/kg, 2 d post-sTBI",80.00 ± 8.20 nmol/g w.w.
same,UDP-Gal,"15 mg/kg, 2 d post-sTBI",116.34 ± 9.71 nmol/g w.w.
same,UDP-GalNac,"15 mg/kg, 2 d post-sTBI",22.37 ± 3.30 nmol/g w.w.
same,UDP-Glc,"15 mg/kg, 2 d post-sTBI",43.41 ± 6.43 nmol/g w.w.
same,UDP-GlcNac,"15 mg/kg, 2 d post-sTBI",108.74 ± 9.90 nmol/g w.w.
same,UMP,"15 mg/kg, 2 d post-sTBI",147.53 ± 20.38 nmol/g w.w.
same,URACIL,"15 mg/kg, 2 d post-sTBI",15.55 ± 3.04 nmol/g w.w.
same,URIC ACID,"15 mg/kg, 2 d post-sTBI",26.00 ± 5.33 nmol/g w.w.
same,URIDINE,"15 mg/kg, 2 d post-sTBI",87.55 ± 15.41 nmol/g w.w.
same,UTP,"15 mg/kg, 2 d post-sTBI",108.21 ± 16.99 nmol/g w.w.
same,XANTHINE,"15 mg/kg, 2 d post-sTBI",13.87 ± 1.44 nmol/g w.w.
same,β-PSEUDOURIDINE,"15 mg/kg, 2 d post-sTBI",7.84 ± 1.57 nmol/g w.w.
same,NAD^+/NADH,"15 mg/kg, 2 d post-sTBI, adimensional ratio",44.40 ± 7.67
same,ADENOSINE,"15 mg/kg, 7 d post-sTBI",55.95 ± 41.44 nmol/g w.w.
same,ADP,"15 mg/kg, 7 d post-sTBI",276.83 ± 36.87 nmol/g w.w.
same,ADP-Ribose,"15 mg/kg, 7 d post-sTBI",19.21 ± 4.82 nmol/g w.w.
same,AMP,"15 mg/kg, 7 d post-sTBI",50.50 ± 3.97 nmol/g w.w.
same,ASCORBIC ACID,"15 mg/kg, 7 d post-sTBI",2853.35 ± 343.64 nmol/g w.w.
same,ATP,"15 mg/kg, 7 d post-sTBI",1846.63 ± 148.55 nmol/g w.w.
same,Acetyl-CoA,"15 mg/kg, 7 d post-sTBI",38.60 ± 6.57 nmol/g w.w.
same,CDP choline,"15 mg/kg, 7 d post-sTBI",10.06 ± 3.23 nmol/g w.w.
same,CMP,"15 mg/kg, 7 d post-sTBI",47.10 ± 20.04 nmol/g w.w.
same,CREATININE,"15 mg/kg, 7 d post-sTBI",5.23 ± 0.92 nmol/g w.w.
same,CTP,"15 mg/kg, 7 d post-sTBI",96.44 ± 25.54 nmol/g w.w.
same,CYTIDINE,"15 mg/kg, 7 d post-sTBI",33.06 ± 11.63 nmol/g w.w.
same,CYTOSINE,"15 mg/kg, 7 d post-sTBI",13.87 ± 2.98 nmol/g w.w.
same,CoA-SH,"15 mg/kg, 7 d post-sTBI",64.93 ± 8.33 nmol/g w.w.
same,GDP,"15 mg/kg, 7 d post-sTBI",122.07 ± 13.95 nmol/g w.w.
same,GDP Glucose,"15 mg/kg, 7 d post-sTBI",101.65 ± 11.89 nmol/g w.w.
same,GMP,"15 mg/kg, 7 d post-sTBI",41.55 ± 19.66 nmol/g w.w.
same,GSH,"15 mg/kg, 7 d post-sTBI",2390.89 ± 315.16 nmol/g w.w.
same,GTP,"15 mg/kg, 7 d post-sTBI",479.98 ± 43.64 nmol/g w.w.
same,GUANINE,"15 mg/kg, 7 d post-sTBI",5.27 ± 2.24 nmol/g w.w.
same,GUANOSINE,"15 mg/kg, 7 d post-sTBI",20.91 ± 4.36 nmol/g w.w.
same,HYPOXANTHINE,"15 mg/kg, 7 d post-sTBI",10.21 ± 2.97 nmol/g w.w.
same,IMP,"15 mg/kg, 7 d post-sTBI",74.70 ± 19.13 nmol/g w.w.
same,INOSINE,"15 mg/kg, 7 d post-sTBI",104.41 ± 11.72 nmol/g w.w.
same,MDA,"15 mg/kg, 7 d post-sTBI",6.23 ± 1.03 nmol/g w.w.
same,Malonyl-CoA,"15 mg/kg, 7 d post-sTBI",7.98 ± 1.44 nmol/g w.w.
same,NADH,"15 mg/kg, 7 d post-sTBI",11.65 ± 1.63 nmol/g w.w.
same,NADPH,"15 mg/kg, 7 d post-sTBI",6.66 ± 1.55 nmol/g w.w.
same,NADP^+,"15 mg/kg, 7 d post-sTBI",23.75 ± 8.72 nmol/g w.w.
same,NAD^+,"15 mg/kg, 7 d post-sTBI",491.52 ± 69.61 nmol/g w.w.
same,NO2,"15 mg/kg, 7 d post-sTBI",110.72 ± 23.99 nmol/g w.w.
same,NO3,"15 mg/kg, 7 d post-sTBI",161.99 ± 27.67 nmol/g w.w.
same,UDP,"15 mg/kg, 7 d post-sTBI",37.91 ± 5.33 nmol/g w.w.
same,UDP-Gal,"15 mg/kg, 7 d post-sTBI",137.57 ± 9.46 nmol/g w.w.
same,UDP-GalNac,"15 mg/kg, 7 d post-sTBI",17.91 ± 5.13 nmol/g w.w.
same,UDP-Glc,"15 mg/kg, 7 d post-sTBI",62.97 ± 12.80 nmol/g w.w.
same,UDP-GlcNac,"15 mg/kg, 7 d post-sTBI",67.47 ± 23.34 nmol/g w.w.
same,UMP,"15 mg/kg, 7 d post-sTBI",181.82 ± 35.22 nmol/g w.w.
same,URACIL,"15 mg/kg, 7 d post-sTBI",15.92 ± 3.27 nmol/g w.w.
same,URIC ACID,"15 mg/kg, 7 d post-sTBI",8.60 ± 2.05 nmol/g w.w.
same,URIDINE,"15 mg/kg, 7 d post-sTBI",134.04 ± 31.76 nmol/g w.w.
same,UTP,"15 mg/kg, 7 d post-sTBI",127.42 ± 22.32 nmol/g w.w.
same,XANTHINE,"15 mg/kg, 7 d post-sTBI",12.71 ± 3.60 nmol/g w.w.
same,β-PSEUDOURIDINE,"15 mg/kg, 7 d post-sTBI",63.77 ± 11.83 nmol/g w.w.
same,ATP/ADP,[1],6.76 ± 0.86
same,NAD+/NADH,[1],42.51 ± 5.26
same,whole brain NAA,"5 or 15 mg/kg b.w., 2 days post impact",significantly higher than values found in sTBI rats
same,"ATP levels, % lower than the value of controls",7 days post impact,16%
same,"NAA concentration, % lower than the value of controls",7 days post impact,16%
same,whole brain NAA,"increasing single doses or repeat maximal dose, 7 days post sTBI",dose dependent increase
